target: PI 3-kinase beta (Homo sapiens (Human), UniProt P42338); assay: Cellular p-Akt (S473) SureFire assay, Rat-1_PI3Kbeta cells (Assay I); type: cell-based; settings: p-AKT (Ser473) in Rat-1 cells expressing myr-HA-hp110 beta, 1 h compound; read-out: Assay I PI3Kβ IC50
Excerpt: Cellular Assays for PI 3-Kinase Alpha (H), Beta (I) and Delta (J)
AlphaScreen (Amplified Luminescent Proximity Homogeneous Assay, ALPHA, Perkin Elmer) is a non-radioactive bead-based proximity assay technology to study biomolecular interactions in a homogenous microtiter plate format. The brand name SureFire denotes AlphaScreen assays that are adapted to quantify the phosphorylation of endogenous cellular proteins in cell lysates, by using matched antibody pairs, which consist of an anti-phospho-kinase and an anti-kinase antibody. The assay allows characterization of kinase signaling in cells as well as measurement of kinase inhibitor effects.
Rat-1 cell lines stably overexpressing activated PI 3-kinase class I isoforms Rat-1 pBABEpuro Myr-HA-hp110 delta clone 5 (Rat-1_PI3Kdelta) and Rat-1 pBABEpuro Myr-HA-hp110 alpha clone 6 (Rat-1_PI3Kalpha) and Rat-1 pBABEpuro Myr-HA-hp110 beta (Rat-1_PI3beta) were cultivated in complete growth medium (DMEM high glucose, 10% (v/v) fetal bovine serum, 1% (v/v) MEM NEAA, 10 mM HEPES, 2 mM L-glutamine, puromycin (10 μg/mL for Rat-1_PI3Kdelta and Rat-1_PI3Kalpha, 4 ug/mL for Rat-1_PI3beta), 1% (v/v) Pen/Strep) to 90% confluency at 37° C./5% CO2/90% humidity in a humidified CO2 incubator and were split twice a week. The following materials were used for p-AKT(5473) detection in Rat-1 cell lysates: Dulbecco's modified Eagle's medium (DMEM) high glucose (Gibco Invitrogen, Basel, Switzerland, Cat. No. 41965), heat inactivated fetal bovine serum, qualified (HI FBS; Gibco Invitrogen, Basel, Switzerland, Lot. No. 16140), MEM non essential amino acids (NEAA; Gibco Invitrogen, Basel, Switzerland, Cat. No. 11140), HEPES (Gibco Invitrogen, Basel, Switzerland, Cat. No. 15630), penicillin/streptomycin (Pen/Strep, 100×; Gibco Invitrogen, Basel, Switzerland, Cat. No. 15140-122), L-glutamine (Gibco Invitrogen, Basel, Switzerland, Cat. No. 25030), puromycin (Sigma Aldrich, Buchs, Switzerland, Cat. No. P9620), DMSO (MERCK, Dietikon, Switzerland, Cat. No. 8.02912.2500), H2O, MilliQ-H2O unless otherwise stated (MILLIPORE QGARDOOR1, Millipore, Zug, Switzerland), bovine serum albumine (BSA; Sigma Aldrich, Buchs, Switzerland Cat. No. A8412), SureFire p-Akt 1/2 (Ser473) Assay Kit (Perkin Elmer, Schwerzenbach, Switzerland, Cat. No. TGRAS50K).
The p-Akt (S473) SureFire assay measures the phosphorylation of endogenous cellular Akt 1/2 at Ser473 in cell lysates. Using Rat-1 cells stably expressing myr-HA-tagged versions of the human PI3Kdelta, PI3Kalpha, or PI3Kbeta p110 catalytic subunit isoforms, the assay was developed as a two-plate protocol in a 384-well format.
For compound testing, the cells were seeded at a density of 4000 (Rat-1_PI3Kdelta), 7500 (Rat-1_PI3Kalpha), or 6200 (Rat-1_PI3Kbeta) cells in 20 μl complete growth medium into cell culture treated 384-well plates and were grown at 37° C./5% CO2/90% humidity for 24 h. Shortly before compound transfer, the complete medium was removed, 30 μl assay buffer (DMEM high glucose, 1×MEM NEAA, 10 mM HEPES, 2 mM L-glutamine, 0.1% (w/v) BSA) was added and 10 μl of the compound predilutions were transferred to the cells. After treatment with compound for 1 h, the cells were lysed by the addition of 20 μl lysis buffer supplemented with 0.24% (w/v) BSA. Detection of p-AKT (Ser473) was performed with the SureFire p-Akt 1/2 (Ser473) Assay Kit according to the manufacturer's instructions using 5 ul of cell lysate in a total detection volume of 12 μl.
IC50 values of the percentage inhibition of each compound at 8 concentrations (usually 10, 3.0, 1.0, 0.3, 0.1, 0.030, 0.010 and 0.003 μM) n=2 were derived by fitting a sigmoidal dose-response curve to a plot of assay readout over inhibitor concentration as described. All fits were performed with the program XLfit4 (ID Business Solutions, Guildford, UK).

PI 3-kinase beta, sequence (P42338 whole entry): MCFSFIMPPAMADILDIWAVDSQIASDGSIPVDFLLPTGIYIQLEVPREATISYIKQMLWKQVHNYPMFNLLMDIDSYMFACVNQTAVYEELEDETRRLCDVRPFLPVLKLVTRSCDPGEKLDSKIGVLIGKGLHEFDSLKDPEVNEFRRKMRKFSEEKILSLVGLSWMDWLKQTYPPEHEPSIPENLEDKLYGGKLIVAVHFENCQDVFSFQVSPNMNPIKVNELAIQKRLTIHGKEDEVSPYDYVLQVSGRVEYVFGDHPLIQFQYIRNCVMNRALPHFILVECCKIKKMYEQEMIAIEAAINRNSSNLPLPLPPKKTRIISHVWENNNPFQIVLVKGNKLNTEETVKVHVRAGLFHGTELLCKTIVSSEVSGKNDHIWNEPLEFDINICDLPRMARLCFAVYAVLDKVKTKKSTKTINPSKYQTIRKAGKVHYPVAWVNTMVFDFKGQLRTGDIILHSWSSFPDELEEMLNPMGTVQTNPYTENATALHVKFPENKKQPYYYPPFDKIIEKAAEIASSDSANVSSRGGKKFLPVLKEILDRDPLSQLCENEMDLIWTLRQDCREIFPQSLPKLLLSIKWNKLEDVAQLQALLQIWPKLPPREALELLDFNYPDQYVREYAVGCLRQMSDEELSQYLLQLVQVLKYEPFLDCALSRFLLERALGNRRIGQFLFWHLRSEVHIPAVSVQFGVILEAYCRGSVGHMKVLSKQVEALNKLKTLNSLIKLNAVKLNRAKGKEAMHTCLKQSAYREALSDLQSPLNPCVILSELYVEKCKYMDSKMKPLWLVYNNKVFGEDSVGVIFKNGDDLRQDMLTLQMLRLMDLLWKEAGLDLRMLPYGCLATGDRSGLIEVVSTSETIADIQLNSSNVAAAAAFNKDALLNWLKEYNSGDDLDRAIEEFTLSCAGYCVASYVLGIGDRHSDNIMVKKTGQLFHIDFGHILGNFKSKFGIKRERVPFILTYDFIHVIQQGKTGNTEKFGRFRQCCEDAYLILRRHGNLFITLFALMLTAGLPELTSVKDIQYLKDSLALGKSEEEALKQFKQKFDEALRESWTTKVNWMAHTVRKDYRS
PI 3-kinase beta, sequence (Q63787 whole entry partner): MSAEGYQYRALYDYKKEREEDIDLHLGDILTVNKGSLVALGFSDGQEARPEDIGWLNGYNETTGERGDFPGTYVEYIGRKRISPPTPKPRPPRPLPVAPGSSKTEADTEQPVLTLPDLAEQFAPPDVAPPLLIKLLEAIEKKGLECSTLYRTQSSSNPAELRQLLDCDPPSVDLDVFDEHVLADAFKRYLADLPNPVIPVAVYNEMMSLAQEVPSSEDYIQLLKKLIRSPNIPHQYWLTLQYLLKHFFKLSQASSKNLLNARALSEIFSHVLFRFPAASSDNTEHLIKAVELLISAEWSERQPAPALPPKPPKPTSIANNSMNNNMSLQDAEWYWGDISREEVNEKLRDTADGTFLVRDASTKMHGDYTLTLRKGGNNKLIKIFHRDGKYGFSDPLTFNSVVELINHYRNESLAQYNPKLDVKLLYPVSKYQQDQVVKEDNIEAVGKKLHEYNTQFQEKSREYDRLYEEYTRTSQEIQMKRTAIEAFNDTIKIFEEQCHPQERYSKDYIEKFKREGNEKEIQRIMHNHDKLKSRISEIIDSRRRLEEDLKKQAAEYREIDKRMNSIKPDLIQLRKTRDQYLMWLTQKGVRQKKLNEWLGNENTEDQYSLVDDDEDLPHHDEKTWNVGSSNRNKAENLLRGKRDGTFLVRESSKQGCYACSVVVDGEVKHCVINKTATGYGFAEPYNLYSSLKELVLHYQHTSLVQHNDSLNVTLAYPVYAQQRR

**Q.** For `Cc1ccc(S(=O)(=O)NCCC(C)(C)O)cc1-c1cncc(-c2cn(CCN3CCOCC3)nc2C)n1` [Example 10, N-(3-Hydroxy-3-methyl-butyl)-4-methyl-3-{6-[3-methyl-1-(2-morpholin-4-yl-ethyl)-1H-pyrazol-4-yl]-pyrazin-2-yl}-benzenesulfonamide], which IC50 is on record?
**A.** 3.83 µM

**Q.** `Cc1ccc(S(=O)(=O)NCC(C)(C)O)cc1-c1cncc(-c2cn(C)nc2C)n1` [Example 2, 3-[6-(1,3-Dimethyl-1H-pyrazol-4-yl)-pyrazin-2-yl]-N-(2-hydroxy-2-methyl-propyl)-4-methyl-benzenesulfonamide] was tested. Which IC50 did it give?
**A.** 0.784 µM

**Q.** With `Cc1ccc(S(=O)(=O)NCC2(C)COC2)cc1-c1cncc(-c2cn(C)nc2C)n1` [Example 4, Trans 3-[6-(1,3-Dimethyl-1H-pyrazol-4-yl)-pyrazin-2-yl]-4-methyl-N-(3-methyl-oxetan-3-ylmethyl)-benzenesulfonamide] as the compound, how does the IC50 read?
**A.** 0.833 µM

**Q.** With `Cc1ccc(S(=O)(=O)NCCC(C)(C)O)cc1-c1cncc(-c2cnn(CCN3CCOCC3)c2)n1` [Example 9, N-(3-Hydroxy-3-methyl-butyl)-4-methyl-3-{6-[1-(2-morpholin-4-yl-ethyl)-1H-pyrazol-4-yl]-pyrazin-2-yl}-benzenesulfonamide] as the compound, how does the IC50 read?
**A.** 6.98 µM

**Q.** With `Cc1ncc(-c2cncc(-c3cc(S(=O)(=O)N[C@H]4CC[C@H](O)CC4)ccc3C)n2)s1` [Example 5, Trans N-(4-Hydroxycyclohexyl)-4-methyl-3-(6-(2-methylthiazol-5-yl)pyrazin-2-yl)benzenesulfonamide] as the compound, how does the IC50 read?
**A.** 9.42 µM

**Q.** With `Cc1ccc(S(=O)(=O)N[C@H]2CC[C@H](O)CC2)cc1-c1cncc(-c2cccnc2)n1` [Example 11, Trans N-(4-Hydroxy-cyclohexyl)-4-methyl-3-(6-pyridin-3-yl-pyrazin-2-yl)-benzenesulfonamide] as the compound, how does the IC50 read?
**A.** > 10 µM

**Q.** For `Cc1ccc(S(=O)(=O)NCCC(C)(C)O)cc1-c1cncc(-c2cn(C)nc2C)n1` [Example 3, 3-[6-(1,3-Dimethyl-1H-pyrazol-4-yl)-pyrazin-2-yl]-N-(3-hydroxy-3-methyl-butyl)-4-methyl-benzenesulfonamide], which IC50 is on record?
**A.** 3.18 µM

Reference: US9862711B2, “Pyrazine derivatives as phosphatidylinositol 3-kinase inhibitors” (NOVARTIS AG, priority 2014, dated 2018)
